# Results from ChEMBL document CHEMBL3879888, “2,4,6-triamino-1,3,5-triazine derivative” (2008).
# Activity calls are given as the source filed them. The calls are words filed in the database; no cut-off is given here.
# Target: T1, Voltage-gated inwardly rectifying potassium channel KCNH3 (Homo sapiens) (UniProt Q9ULD8)
# T1 sequence (whole entry): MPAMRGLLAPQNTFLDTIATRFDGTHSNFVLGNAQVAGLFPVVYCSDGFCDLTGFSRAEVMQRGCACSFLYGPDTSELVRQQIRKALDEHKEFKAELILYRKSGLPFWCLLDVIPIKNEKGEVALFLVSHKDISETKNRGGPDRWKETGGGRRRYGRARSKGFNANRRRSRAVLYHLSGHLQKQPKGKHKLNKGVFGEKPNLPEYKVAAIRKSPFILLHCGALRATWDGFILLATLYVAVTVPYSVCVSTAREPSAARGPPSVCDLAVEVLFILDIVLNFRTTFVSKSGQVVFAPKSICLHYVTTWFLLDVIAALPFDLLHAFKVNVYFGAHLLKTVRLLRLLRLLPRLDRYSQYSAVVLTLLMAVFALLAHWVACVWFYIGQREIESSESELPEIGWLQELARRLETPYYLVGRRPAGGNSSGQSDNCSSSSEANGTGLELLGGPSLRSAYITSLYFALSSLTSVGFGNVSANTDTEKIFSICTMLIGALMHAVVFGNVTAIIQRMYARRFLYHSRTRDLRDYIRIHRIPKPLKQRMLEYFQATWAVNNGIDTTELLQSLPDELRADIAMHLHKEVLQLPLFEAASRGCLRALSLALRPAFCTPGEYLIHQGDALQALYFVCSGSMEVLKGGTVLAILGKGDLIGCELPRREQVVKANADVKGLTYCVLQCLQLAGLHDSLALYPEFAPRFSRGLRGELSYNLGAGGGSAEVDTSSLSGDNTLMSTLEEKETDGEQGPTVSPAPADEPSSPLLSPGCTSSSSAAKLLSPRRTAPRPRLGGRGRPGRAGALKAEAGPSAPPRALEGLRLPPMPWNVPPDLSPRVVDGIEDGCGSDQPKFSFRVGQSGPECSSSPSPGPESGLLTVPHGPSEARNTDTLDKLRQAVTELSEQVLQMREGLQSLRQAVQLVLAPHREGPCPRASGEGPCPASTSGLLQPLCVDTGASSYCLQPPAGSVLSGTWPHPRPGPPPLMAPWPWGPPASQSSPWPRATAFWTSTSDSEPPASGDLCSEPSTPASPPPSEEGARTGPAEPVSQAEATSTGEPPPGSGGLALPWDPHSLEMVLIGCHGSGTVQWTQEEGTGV
# Assay: Inhibition of BEC1 (unknown origin) expressed in dihydrofolate reductase-deficient CHO cells assessed as decrease in KCl-induced intracellular 86Rb ion release at 3 uM after 20 mins relative to control
# Format: cell-based
row,inhibition,Structure (SMILES)
1,33%,Fc1ccccc1CNc1nc(Nc2ccccc2)nc(Nc2ccccc2)n1
2,34%,CSC1CCC[C@H]1Nc1nc(Nc2ccccc2)nc(Nc2ccccc2)n1 (stereo partly drawn)
3,33%,Brc1ccc(CNc2nc(Nc3ccccc3)nc(Nc3ccccc3)n2)cc1
4,44%,C=CCNc1nc(Nc2ccccc2)nc(Nc2ccccc2)n1
5,31%,COc1ccc(CNc2nc(Nc3ccccc3)nc(Nc3ccccc3)n2)cc1
6,21%,CCOC(=O)CNc1nc(Nc2ccccc2)nc(Nc2ccccc2)n1
7,36%,CCOC(=O)C(C)Nc1nc(Nc2ccccc2)nc(Nc2ccccc2)n1 (stereo not drawn)
8,11%,CC(C)Nc1nc(Nc2ccc3c(c2)OCCO3)nc(Nc2ccc3c(c2)OCCO3)n1
9,23%,OC1CCCCC1Nc1nc(Nc2ccccc2)nc(Nc2ccccc2)n1 (stereo not drawn)
10,12%,O=[N+]([O-])c1cccc(Nc2nc(Nc3ccccc3)nc(Nc3ccccc3)n2)c1
11,37%,Cc1c(O)cccc1Nc1nc(Nc2ccccc2)nc(Nc2ccccc2)n1
12,31%,Cc1cc(O)ccc1Nc1nc(Nc2ccccc2)nc(Nc2ccccc2)n1
13,29%,Cc1cnc(CNc2nc(Nc3ccccc3)nc(Nc3ccccc3)n2)cn1
14,29%,CCOC(=O)CCCNc1nc(Nc2ccccc2)nc(Nc2ccccc2)n1
15,17%,CSc1ccccc1Nc1nc(Nc2ccccc2)nc(Nc2ccccc2)n1
16,34%,Fc1cccc(CNc2nc(Nc3ccccc3)nc(Nc3ccccc3)n2)c1
17,10%,c1ccc(Nc2nc(NCCc3cccs3)nc(Nc3ccccc3)n2)cc1
18,19%,c1ccc(Nc2nc(Nc3ccccc3)nc(NC3CCCC3)n2)cc1
19,23%,O=C1NCCCCC1Nc1nc(Nc2ccccc2)nc(Nc2ccccc2)n1 (stereo not drawn)

row,inhibition,Structure (SMILES)
1,33%,O=[N+]([O-])c1ccc(CCNc2nc(Nc3ccccc3)nc(Nc3ccccc3)n2)cc1
2,22%,Cc1ccc([N+](=O)[O-])cc1Nc1nc(Nc2ccccc2)nc(Nc2ccccc2)n1
3,50%,OC[C@@H](CNc1nc(Nc2ccccc2)nc(Nc2ccccc2)n1)c1ccccc1
4,11%,CC(C)Nc1nc(Nc2ccc(Br)cc2)nc(Nc2ccc(Br)cc2)n1
5,18%,CC(C)Nc1nc(Nc2ccccc2)nc(Nc2ccc3c(c2)CCC3)n1
6,59%,c1ccc(Nc2nc(NCc3cccnc3)nc(Nc3ccccc3)n2)cc1
7,22%,NC(=O)CNc1nc(Nc2ccccc2)nc(Nc2ccccc2)n1
8,49%,CSC1COC[C@H]1Nc1nc(Nc2ccccc2)nc(Nc2ccccc2)n1 (stereo partly drawn)
9,45%,Clc1ccc(CNc2nc(Nc3ccccc3)nc(Nc3ccccc3)n2)cc1
10,25%,CC(C)Nc1nc(Nc2ccccc2)nc(Nc2ccc(F)cc2)n1
11,40%,OCCc1ccccc1Nc1nc(Nc2ccccc2)nc(Nc2ccccc2)n1
12,40%,CC(C)Nc1nc(Nc2ccccc2)nc(Nc2ccc3c(c2)OCCO3)n1
13,27%,CC(C)Nc1nc(Nc2ccccc2)nc(Nc2ccc(Br)cc2)n1
14,51%,c1ccc(Nc2nc(NCC3CC3)nc(Nc3ccccc3)n2)cc1
15,15%,c1ccc(Nc2nc(Nc3ccccc3)nc(Nc3ccc4c(c3)OCCO4)n2)cc1
16,35%,Cc1ccc(CNc2nc(Nc3ccccc3)nc(Nc3ccccc3)n2)cc1
17,10%,CSc1ccc(Nc2nc(Nc3ccc(SC)cc3)nc(NC(C)C)n2)cc1
18,10%,O=C1NCCCC[C@@H]1Nc1nc(Nc2ccccc2)nc(Nc2ccccc2)n1

# Test system: Mus musculus
# Assay: Inhibition of electroconvulsive shock-induced amnesia in ddy mouse at 3 mg/kg, ip by passive avoidance test
# Format: functional, organism-based
row,Structure (SMILES),inhibition
1,Fc1ccc(Nc2nc(NCc3ccnc(F)c3)nc(Nc3ccccc3)n2)cc1,Active
